The results in this text go back to patent US20230183188A1, “ENPP1 MODULATORS AND USES THEREOF” (Vir Biotechnology, Inc., priority 2020, published 2023).

SMILES strings stand for the structures.

The assay deals with T1, recombinant protein containing the human ENPP1 enzymatic domain (Homo sapiens, UniProt P22413).
T1 construct: recombinant protein containing the human ENPP1 enzymatic domain; purchased R&D Systems 6136-EN-010
T1 sequence (P22413 191-591 limits assumed): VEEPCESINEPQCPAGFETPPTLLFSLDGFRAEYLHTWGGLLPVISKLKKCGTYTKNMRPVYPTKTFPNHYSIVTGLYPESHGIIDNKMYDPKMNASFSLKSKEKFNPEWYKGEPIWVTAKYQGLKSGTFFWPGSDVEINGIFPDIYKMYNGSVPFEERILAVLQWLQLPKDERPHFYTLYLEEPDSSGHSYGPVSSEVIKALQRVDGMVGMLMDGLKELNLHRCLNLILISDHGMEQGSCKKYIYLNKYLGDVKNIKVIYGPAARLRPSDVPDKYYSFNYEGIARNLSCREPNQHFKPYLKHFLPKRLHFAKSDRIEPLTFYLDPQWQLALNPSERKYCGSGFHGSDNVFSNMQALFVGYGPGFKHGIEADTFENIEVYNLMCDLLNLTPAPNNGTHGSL
Put plainly: ENPP1 Enzymatic Inhibition Assay (2′3′-cGAMP substrate, AMP-Glo luminescence). The note with it: 1 nM ENPP1, 20 uM 2′3′-cGAMP substrate, 30 minutes at 37° C. It counts as biochemical. As to the method: The inhibition of ENPP1's phosphodiesterase activity were tested in a purified enzymatic assay using 2′3′-cyclic GAMP as a substrate which allowed for the release of cleaved AMP to be monitored using a luminescent assay.
Putative inhibitors were diluted in assay buffer (50 mM Tris pH 8.0, 250 mM NaCl, 0.5 mM CaCl2, 1 uM ZnCl2, 1% DMSO) and pre-incubated for 15 minutes at 37° C. with recombinant protein containing the human ENPP1 enzymatic domain (R&D Systems cat. #6136-EN-010). The enzymatic reaction was initiated upon addition of the 2′3′-cGAMP substrate. The final reaction concentrations were 1 nM ENPP1 and 20 uM 2′3′-cGAMP substrate in a 25 uL volume. Inhibitor concentrations ranged from 10 uM to 0.2 nM. The reaction was incubated for 30 minutes at 37° C.
After reacting for 30 minutes, the amount of AMP generated from the cleavage of 2′3′-cGAMP was determined using the Promega AMP-Glo method according to the manufacturer's protocol. First, AMP-Glo reagent 1 was added and incubated with the reaction mix for 1 hour at room temperature. Second, AMP Detection solution was added and the mixture was incubated for an additional hour. The luminescence of the mixture was read on a Perkin Elmer Ensight plate reader.
The maximum and minimum levels of ENPP1 activity were established using no inhibitor and no enzyme controls, respectively. The activity observed using ENPP1 inhibitors was quantified as the percent of activity relative to these controls. IC50 values were calculated using GraphPad Prism by fitting a sigmoidal variable slope nonlinear regression model to the data.
On to `COc1ccc2c(Oc3ccc(S(N)(=O)=NCC(C)O)cc3)ccnc2c1` (single isomer, unassigned) [Compound 10, N′-(2-hydroxypropyl)-4-((7-methoxyquinolin-4-yl)oxy)benzenesulfonimidamide], for which the IC50 was below 10 nM.

`COc1ccc2c(Oc3ccc(S(=N)(=O)NC[C@@H](O)CO)cc3)ccnc2c1` (single isomer, unassigned) [Compound 45]: the IC50 was below 10 nM.

`COc1ccc2c(Oc3ccc(S(=N)(=O)NC[C@H](O)CO)cc3)ccnc2c1` (single isomer, unassigned) [Compound 46]: the IC50 was below 10 nM.

In the case of `COc1ccc2c(Oc3ccc(S(N)(=O)=NCC4CC4)cc3)ccnc2c1` (centres unmarked) [Compound 1, N′-(cyclopropylmethyl)-4-((7-methoxyquinolin-4-yl)oxy)benzenesulfonimidamide], the concentration for half-maximal inhibition (IC50) was below 10 nM.

Take `CN=S(N)(=O)c1ccc(Nc2ncnc3cc(OC)ccc23)cc1` (centres unmarked) [Compound 2, 4-((7-methoxyquinazolin-4-yl)amino)-N-methylbenzenesulfonimidamide]: the IC50 is below 10 nM.

Consider `CN=S(N)(=O)c1ccc(CNc2ccnc3cc(OC)ccc23)cc1` (centres unmarked) [Compound 3, 4-(((7-methoxyquinolin-4-yl)amino)methyl)-N-methylbenzenesulfonimidamide], for which the concentration for half-maximal inhibition (IC50) is above 100 nM.

`CCS(=N)(=O)c1ccc(Oc2ccnc3cc(OC)ccc23)cc1` (centres unmarked) [Compound 4, ethyl(imino)(4-((7-methoxyquinolin-4-yl)oxy)phenyl)-λ^6-sulfanone]: the IC50 was below 10 nM.

`COc1ccc2c(Oc3ccc(S(N)(=O)=NC[C@H]4CCCN4C(=O)OC(C)(C)C)cc3)ccnc2c1` (stereo partly drawn) [Compound 5, tert-butyl (2R)-2-(((amino(4-((7-methoxyquinolin-4-yl)oxy)phenyl)(oxo)-I^6-sulfaneylidene)amino)methyl) pyrrolidine-1-carboxylate]: the 50% inhibitory concentration (IC50) fell in the range of 10 to 100 nM.

With `COc1ccc2c(Oc3ccc(S(N)(=O)=NC[C@H]4CCCN4)cc3)ccnc2c1` (stereo partly drawn) [Compound 6, 4-((7-methoxyquinolin-4-yl)oxy)-N′-(((R)-pyrrolidin-2-yl)methyl)benzenesulfonimidamide], the half-inhibitory concentration (IC50) was in the range of 10 to 100 nM.

On to `COc1ccc2c(Oc3ccc(S(N)(=O)=NCC(=O)O)cc3)ccnc2c1` (centres unmarked) [Compound 7], for which the IC50 was 10 to 100 nM.

For `COc1ccc2c(Oc3ccc(S4(=O)=NC(=O)CN4)cc3)ccnc2c1` (centres unmarked) [Compound 8, 1-(4-((7-methoxyquinolin-4-yl)oxy)phenyl)-4,5-dihydro-3H-1λ^6,2,5-thiadiazol-3-one 1-oxide], the half-inhibitory concentration (IC50) is above 100 nM.

For `COc1ccc2c(Oc3ccc(S(N)(=O)=NCCO)cc3)ccnc2c1` (centres unmarked) [Compound 9, N-(2-hydroxyethyl)-4-((7-methoxyquinolin-4-yl)oxy)benzenesulfonimidamide], the half-maximal inhibitory concentration (IC50) fell in the range of 10 to 100 nM.

Take `COc1ccc2c(Oc3ccc(S(N)(=O)=NCC(C)(C)O)cc3)ccnc2c1` (centres unmarked) [Compound 11, N′-(2-hydroxy-2-methylpropyl)-4-((7-methoxyquinolin-4-yl)oxy)benzenesulfonimidamide]: the IC50 was below 10 nM.

`COc1ccc2c(Oc3ccc(S(N)(=O)=NCCOc4ccccn4)cc3)ccnc2c1` (centres unmarked) [Compound 12, 4-((7-methoxyquinolin-4-yl)oxy)-N′-(2-(pyridin-2-yloxy)ethyl)benzenesulfonimidamide]: the IC50 is below 10 nM.

On to `COc1ccc2c(Oc3ccc(S(N)(=O)=NCCOc4cccnc4)cc3)ccnc2c1` (centres unmarked) [Compound 13, 4-((7-methoxyquinolin-4-yl)oxy)-N′-(2-(pyridin-3-yloxy)ethyl)benzenesulfonimidamide], for which the IC50 is below 10 nM.

`COc1ccc2c(Oc3ccc(S(N)(=O)=NCCOc4ccncc4)cc3)ccnc2c1` (centres unmarked) [Compound 14, 4-((7-methoxyquinolin-4-yl)oxy)-N′-(2-(pyridin-4-yloxy)ethyl)benzenesulfonimidamide]: the half-inhibitory concentration (IC50) is below 10 nM.

For `COc1ccc2c(Oc3ccc(S(N)(=O)=NCc4ncco4)cc3)ccnc2c1` (centres unmarked) [Compound 15, 4-((7-methoxyquinolin-4-yl)oxy)-N′-(oxazol-2-ylmethyl)benzenesulfonimidamide], the IC50 is below 10 nM.

For the compound `COc1ccc2c(Oc3ccc(S(N)(=O)=NCc4nccn4C)cc3)ccnc2c1` (centres unmarked) [Compound 16, 4-((7-methoxyquinolin-4-yl)oxy)-N′-((1-methyl-1H-imidazol-2-yl)methyl)benzenesulfonimidamide], the IC50 was below 10 nM.

Consider `COc1ccc2c(Oc3ccc(S(N)(=O)=NCc4nccs4)cc3)ccnc2c1` (centres unmarked) [Compound 17, 4-((7-methoxyquinolin-4-yl)oxy)-N′-(thiazol-2-ylmethyl)benzenesulfonimidamide], for which the IC50 was below 10 nM.

Take `COc1ccc2c(Oc3ccc(S(=N)(=O)N4CCOCC4)cc3)ccnc2c1` (centres unmarked) [Compound 18, 4-(4-((7-methoxyquinolin-4-yl)oxy)phenylsulfonimidoyl)morpholine]: the half-maximal inhibitory concentration (IC50) is above 100 nM.

For `COc1ccc2c(Oc3ccc(S(N)(=O)=NCCc4ccccc4)cc3)ccnc2c1` (centres unmarked) [Compound 19, 4-((7-methoxyquinolin-4-yl)oxy)-N′-phenethylbenzenesulfonimidamide], the IC50 is 10 to 100 nM.

Regarding `COc1ccc2c(Oc3ccc(S(N)(=O)=Nc4ccccc4)cc3)ccnc2c1` (centres unmarked) [Compound 20, 4-((7-methoxyquinolin-4-yl)oxy)-N′-phenylbenzenesulfonimidamide], the IC50 fell in the range of 10 to 100 nM.

Take `COc1ccc2c(Oc3ccc(S(N)(=O)=NC4CC4)cc3)ccnc2c1` (centres unmarked) [Compound 21, N′-cyclopropyl-4-((7-methoxyquinolin-4-yl)oxy)benzenesulfonimidamide]: the IC50 was 10 to 100 nM.

On to `CCN=S(N)(=O)c1ccc(Oc2ccnc3cc(OC)ccc23)cc1` (centres unmarked) [Compound 22, N′-ethyl-4-((7-methoxyquinolin-4-yl)oxy)benzenesulfonimidamide], for which the IC50 lay within 10 to 100 nM.

With `CCN(CC)S(=N)(=O)c1ccc(Oc2ccnc3cc(OC)ccc23)cc1` (centres unmarked) [Compound 23, N,N-diethyl-4-((7-methoxyquinolin-4-yl)oxy)benzenesulfonimidamide], the concentration for half-maximal inhibition (IC50) was above 100 nM.

For the compound `COc1ccc2c(Oc3ccc(S(=N)(=O)N4CCCC4)cc3)ccnc2c1` (centres unmarked) [Compound 24, 7-methoxy-4-(4-(pyrrolidine-1-sulfonimidoyl)phenoxy)quinoline], the IC50 is above 100 nM.

Take `COc1ccc2c(Oc3ccc(S(N)(=O)=NCc4ccccc4)cc3)ccnc2c1` (centres unmarked) [Compound 25, N′-benzyl-4-((7-methoxyquinolin-4-yl)oxy)benzenesulfonimidamide]: the concentration for half-maximal inhibition (IC50) is below 10 nM.

Regarding `COc1ccc2c(Oc3ccc(S(N)(=O)=NCc4ccccn4)cc3)ccnc2c1` (centres unmarked) [Compound 26, 4-((7-methoxyquinolin-4-yl)oxy)-N′-(pyridin-2-ylmethyl)benzenesulfonimidamide], the IC50 lay within 10 to 100 nM.

For the compound `COc1ccc2c(Oc3ccc(S(N)(=O)=NCc4cccnc4)cc3)ccnc2c1` (centres unmarked) [Compound 27, 4-((7-methoxyquinolin-4-yl)oxy)-N′-(pyridin-3-ylmethyl)benzenesulfonimidamide], the IC50 was 10 to 100 nM.

In the case of `COc1ccc2c(Oc3ccc(S(N)(=O)=NCc4ccncc4)cc3)ccnc2c1` (centres unmarked) [Compound 28, 4-((7-methoxyquinolin-4-yl)oxy)-N′-(pyridin-4-ylmethyl)benzenesulfon imidamide], the 50% inhibitory concentration (IC50) lay within 10 to 100 nM.

Turning to `COc1ccc2c(Oc3ccc(S(=N)(=O)N4CCN(C)CC4)cc3)ccnc2c1` (centres unmarked) [Compound 29, 7-methoxy-4-(4-(4-methylpiperazine-1-sulfonimidoyl)phenoxy)quinoline], the half-maximal inhibitory concentration (IC50) was in the range of 10 to 100 nM.

With `COc1ccc2c(Oc3ccc(S(=N)(N)=O)cc3)ccnc2c1` (centres unmarked) [Compound 30, 4-((7-methoxyquinolin-4-yl)oxy)benzenesulfonimidamide], the IC50 was in the range of 10 to 100 nM.

Consider `CNS(=N)(=O)c1ccc(Oc2ccnc3cc(OC)ccc23)cc1` (centres unmarked) [Compound 31, 4-((7-methoxyquinolin-4-yl)oxy)-N′-methylbenzenesulfonimidamide], for which the IC50 was 10 to 100 nM.

For `COc1ccc2c(Oc3ccc(S(=N)(=O)N(C)C)cc3)ccnc2c1` (centres unmarked) [Compound 32, 4-((7-methoxyquinolin-4-yl)oxy)-N, N-dimethylbenzenesulfonimidamide], the IC50 was above 100 nM.

For `COc1ccc2c(Oc3ccc(S(N)(=O)=NC4(c5ccccn5)CC4)cc3)ccnc2c1` (centres unmarked) [Compound 33, 4-((7-methoxyquinolin-4-yl)oxy)-N′-(1-(pyridin-2-yl)cyclopropyl)benzenesulfonimidamide], the IC50 was below 10 nM.
